In EP3046573B1, “AMYLIN ANALOGUES” (Zealand Pharma A/S, priority 2013, dated 2015):
Numbered stars: 1 amine (or outer) side, 2 acyl side, 3 side chain; on linkers, the order of the positions; unused ones are H or OH. Bridge positions count the residues as written; N and C are the ends. Square brackets hold non-standard residues; d marks the D form. Peptide text beside a SMILES is read from it. * marks the point of attachment. C20 diacid = O=C(O)CCCCCCCCCCCCCCCCCCC(=O)*; γGlu = O=C(O)[C@H](CCC(=O)[*:2])N[*:1]; NMeI = CC[C@H](C)[C@H](NC)C(=O)O; Sar = CNCC(=O)O

Test: Solubility assessment (turbidity absorbance at 325 nm)
Type: physicochemical
Conditions: stock 2 mg/ml diluted 1:1, ambient temperature (typically 25°C), n=1; for Solubility, Acetate buffer pH 4: 100 mM acetate buffer pH 4.0; for Solubility, Acetate buffer pH 5: 100 mM acetate buffer pH 5.0; for Solubility, Histidine buffer pH 6: 100 mM histidine buffer pH 6.0; for Solubility, Histidine buffer pH 7: 100 mM histidine buffer pH 7.0; for Solubility, Phosphate buffer pH 6: 100 mM phosphate buffer pH 6.0; for Solubility, Phosphate buffer pH 7: 100 mM phosphate buffer pH 7.0; for Solubility, Phosphate buffer pH 7.5: 100 mM phosphate buffer pH7.5
Procedure: A stock solution of the test peptide (2 mg/ml; determined from the weighed amount of peptide) in demineralized water adjusted to pH 2.5 with HCI was prepared, and aliquots were diluted 1:1 in 100 mM acetate buffer (pH 4.0 and pH 5.0), 100 mM histidine buffer (pH 6.0 and pH 7.0) and 100 mM phosphate buffer (pH 6.0, pH 7.0 and pH7.5), respectively, and loaded in a standard flat-bottom, non-sterile 96-well UV Microplate. The absorbance of samples (single samples, n=1) at 280 and 325 nm was measured in an absorbance-based plate reader, which was preheated to ambient temperature (typically 25°C). The turbidity absorbance criterion for a peptide solubility of ≥ 1 mg/ml was an absorbance at 325 nm of ≤ 0.02 absorbance units (which is 5 to 6 times the standard deviation of 8 buffer samples in a plate). Solubility data for peptides of the invention, pramlintide, and for a comparison pramlintide derivative denoted NN96 (see Example 5 below for details) are shown in Table 1, below. Table 1. Solubility data for compounds of the invention.

CC[C@H](C)[C@@H](C(=O)N[C@@H](CC(C)C)C(=O)N[C@@H](CO)C(=O)N[C@@H](CO)C(=O)N[C@H](C(=O)N[C@@H](CC(N)=O)C(=O)N[C@H](C(=O)NCC(=O)N[C@@H](CO)C(=O)N[C@@H](CC(N)=O)C(=O)N[C@H](C(=O)N1CCC[C@H]1C(N)=O)[C@@H](C)O)C(C)C)[C@@H](C)O)N(C)C(=O)[C@H](C)NC(=O)CN(C)C(=O)[C@H](Cc1ccccc1)NC(=O)[C@H](CC(N)=O)NC(=O)[C@H](CC(N)=O)NC(=O)[C@H](CO)NC(=O)[C@H](CO)NC(=O)[C@H](Cc1c[nH]cn1)NC(=O)[C@H](Cc1c[nH]cn1)NC(=O)[C@@H](CC(C)C)NC(=O)[C@H](Cc1ccccc1)NC(=O)[C@H](CCC(=O)O)NC(=O)[C@H](C)NC(=O)[C@H](CC(C)C)NC(=O)[C@H](CCCNC(=N)N)NC(=O)[C@H](CCC(N)=O)NC(=O)[C@@H](NC(=O)[C@H](C)NC(=O)[C@@H]1CSSC[C@H](NC(=O)[C@H](CCCNC(=N)N)NC(=O)CC[C@H](NC(=O)CCCCCCCCCCCCCCCCCCC(=O)O)C(=O)O)C(=O)N[C@@H](CC(N)=O)C(=O)N[C@@H]([C@@H](C)O)C(=O)N[C@@H](C)C(=O)N[C@@H]([C@@H](C)O)C(=O)N1)[C@@H](C)O [Compound 10, [19CD]-isoGlu-RC()NTATC()ATQRLAEF-DLeu-HHSSNNF-Gly(Me)-A-Ile(Me)-LSSTNVGSNTP-NH2] ({C20 diacid-γGlu}-RCNTATCATQRLAEF[dL]HHSSNNF[Sar]A[NMeI]LSSTNVGSNTP-NH2; disulfide 2-7)
SS (SS indicates solubility ≥ 1mg/ml): Solubility, Acetate buffer pH 4 | Solubility, Acetate buffer pH 5 | Solubility, Histidine buffer pH 6 | Solubility, Histidine buffer pH 7 | Solubility, Phosphate buffer pH 6 | Solubility, Phosphate buffer pH 7 | Solubility, Phosphate buffer pH 7.5

CC[C@H](C)[C@@H](C(=O)N[C@@H](CC(C)C)C(=O)N[C@@H](CO)C(=O)N[C@@H](CO)C(=O)N[C@H](C(=O)N[C@@H](CC(N)=O)C(=O)N[C@H](C(=O)NCC(=O)N[C@@H](CO)C(=O)N[C@@H](CC(N)=O)C(=O)N[C@H](C(=O)N1CCC[C@H]1C(N)=O)[C@@H](C)O)C(C)C)[C@@H](C)O)N(C)C(=O)[C@H](C)NC(=O)CN(C)C(=O)[C@H](Cc1ccccc1)NC(=O)[C@H](CC(N)=O)NC(=O)[C@@H](CC(N)=O)NC(=O)[C@H](CO)NC(=O)[C@H](CO)NC(=O)[C@H](Cc1c[nH]cn1)NC(=O)[C@H](Cc1c[nH]cn1)NC(=O)[C@H](CC(C)C)NC(=O)[C@H](Cc1ccccc1)NC(=O)[C@H](CCC(=O)O)NC(=O)[C@H](C)NC(=O)[C@H](CC(C)C)NC(=O)[C@H](CCCNC(=N)N)NC(=O)[C@H](CCC(N)=O)NC(=O)[C@@H](NC(=O)[C@H](C)NC(=O)[C@@H]1CSSC[C@H](NC(=O)[C@H](CCCNC(=N)N)NC(=O)CC[C@H](NC(=O)CCCCCCCCCCCCCCCCCCC(=O)O)C(=O)O)C(=O)N[C@@H](CC(N)=O)C(=O)N[C@@H]([C@@H](C)O)C(=O)N[C@@H](C)C(=O)N[C@@H]([C@@H](C)O)C(=O)N1)[C@@H](C)O [Compound 32, [19CD]-isoGlu-RC()NTATC()ATQRLAEFLHHSS-DAsn-NF-Gly(Me)-A-Ile(Me)-LSSTNVGSNTP-NH2] ({C20 diacid-γGlu}-RCNTATCATQRLAEFLHHSS[dN]NF[Sar]A[NMeI]LSSTNVGSNTP-NH2; disulfide 2-7)
SS (SS indicates solubility ≥ 1mg/ml): Solubility, Acetate buffer pH 4 | Solubility, Acetate buffer pH 5 | Solubility, Histidine buffer pH 6 | Solubility, Histidine buffer pH 7 | Solubility, Phosphate buffer pH 6 | Solubility, Phosphate buffer pH 7 | Solubility, Phosphate buffer pH 7.5

CC[C@H](C)[C@@H](C(=O)N[C@@H](CC(C)C)C(=O)N[C@@H](CO)C(=O)N[C@@H](CO)C(=O)N[C@H](C(=O)N[C@@H](CC(N)=O)C(=O)N[C@H](C(=O)NCC(=O)N[C@@H](CO)C(=O)N[C@@H](CC(N)=O)C(=O)N[C@H](C(=O)N1CCC[C@H]1C(N)=O)[C@@H](C)O)C(C)C)[C@@H](C)O)N(C)C(=O)[C@H](C)NC(=O)CN(C)C(=O)[C@H](Cc1ccccc1)NC(=O)[C@@H](CC(N)=O)NC(=O)[C@H](CC(N)=O)NC(=O)[C@H](CO)NC(=O)[C@H](CO)NC(=O)[C@H](Cc1c[nH]cn1)NC(=O)[C@H](Cc1c[nH]cn1)NC(=O)[C@H](CC(C)C)NC(=O)[C@H](Cc1ccccc1)NC(=O)[C@H](CCC(=O)O)NC(=O)[C@H](C)NC(=O)[C@H](CC(C)C)NC(=O)[C@H](CCCNC(=N)N)NC(=O)[C@H](CCC(N)=O)NC(=O)[C@@H](NC(=O)[C@H](C)NC(=O)[C@@H]1CSSC[C@H](NC(=O)[C@H](CCCNC(=N)N)NC(=O)CC[C@H](NC(=O)CCCCCCCCCCCCCCCCCCC(=O)O)C(=O)O)C(=O)N[C@@H](CC(N)=O)C(=O)N[C@@H]([C@@H](C)O)C(=O)N[C@@H](C)C(=O)N[C@@H]([C@@H](C)O)C(=O)N1)[C@@H](C)O [Compound 33, [19CD]-isoGlu-RC()NTATC()ATQRLAEFLHHSSN-DAsn-F-Gly(Me)-A-Ile(Me)-LSSTNVGSNTP-NH2] ({C20 diacid-γGlu}-RCNTATCATQRLAEFLHHSSN[dN]F[Sar]A[NMeI]LSSTNVGSNTP-NH2; disulfide 2-7)
SS (SS indicates solubility ≥ 1mg/ml): Solubility, Acetate buffer pH 4 | Solubility, Acetate buffer pH 5 | Solubility, Histidine buffer pH 6 | Solubility, Histidine buffer pH 7 | Solubility, Phosphate buffer pH 6 | Solubility, Phosphate buffer pH 7 | Solubility, Phosphate buffer pH 7.5
